The source of these data is ChEMBL document CHEMBL1806363, “New substrate analogue furin inhibitors derived from 4-amidinobenzylamide” (Bioorg Med Chem Lett, 2011).

Structures are written as SMILES.

In this assay the target is Furin (Homo sapiens, UniProt P09958). Description: Inhibition of recombinant human furin expressed in CHO cells using pyroGlu- Arg-Thr-Lys-Arg-AMC as the substrate after 30 mins. It is filed as cell-based.
Chain of Furin (P09958 whole entry): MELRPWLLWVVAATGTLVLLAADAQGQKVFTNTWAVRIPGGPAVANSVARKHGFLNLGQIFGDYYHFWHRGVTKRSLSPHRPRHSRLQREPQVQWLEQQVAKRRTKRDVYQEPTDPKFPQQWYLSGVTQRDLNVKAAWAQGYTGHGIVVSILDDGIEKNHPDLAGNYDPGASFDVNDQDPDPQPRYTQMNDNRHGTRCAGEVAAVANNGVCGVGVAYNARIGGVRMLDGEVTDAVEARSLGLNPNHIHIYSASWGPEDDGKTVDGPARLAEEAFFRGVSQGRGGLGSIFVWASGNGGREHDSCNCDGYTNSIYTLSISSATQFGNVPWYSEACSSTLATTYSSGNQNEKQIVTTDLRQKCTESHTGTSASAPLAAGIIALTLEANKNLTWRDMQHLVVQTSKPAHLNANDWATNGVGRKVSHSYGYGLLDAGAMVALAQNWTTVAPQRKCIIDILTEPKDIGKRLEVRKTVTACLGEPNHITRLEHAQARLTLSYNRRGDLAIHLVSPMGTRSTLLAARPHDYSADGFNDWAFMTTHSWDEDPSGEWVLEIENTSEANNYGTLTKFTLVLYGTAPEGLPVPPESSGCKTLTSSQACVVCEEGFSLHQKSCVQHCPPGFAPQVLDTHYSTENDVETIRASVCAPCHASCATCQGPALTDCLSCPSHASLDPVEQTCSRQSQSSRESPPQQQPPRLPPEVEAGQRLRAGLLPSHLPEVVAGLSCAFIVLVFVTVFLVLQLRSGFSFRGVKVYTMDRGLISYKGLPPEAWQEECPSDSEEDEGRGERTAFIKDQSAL

Consider `CC(C)[C@H](NC(=O)Cc1ccccc1)C(=O)N[C@H](CCCN=C(N)N)C(=O)N[C@@H](CCCN=C(N)N)C(=O)NCc1ccc(C(=N)N)cc1`, for which the Ki came to 7340 nM.
On to `NC(N)=NCCC[C@H](NC(=O)[C@@H](CCCN=C(N)N)NC(=O)Cc1ccccc1)C(=O)O`, for which the inhibition constant (Ki) was 3200 nM.
`CC(C)[C@H](NC(=O)[C@H](CCCN=C(N)N)NC(=O)Cc1ccccc1)C(=O)N[C@@H](CCCCN)C(=O)NCc1ccc(C(=N)N)cc1`: the Ki amounted to 1.5 nM.
`N=C(N)c1ccc(CNC(=O)[C@H](CCCCN)NC(=O)[C@H](CN)NC(=O)[C@H](CCCN=C(N)N)NC(=O)Cc2ccccc2)cc1`: the Ki turned out to be 3.7 nM.

In general, Ki refers to the equilibrium dissociation constant of an inhibitor or competing ligand from its target.
